According to US20240415845A1, “Compositions of Iboga Alkaloids and Methods of Treatment” (priority 2022, published 2024):
Where “and” joins values, the source holds several entries; their conditions need not be identical. Equal entries are not always repeated.

What was measured:
[1] = test system: special operations veterans with combat and/or blast exposure; assay: Self-reported alcohol consumption and intoxication; type: in vivo, human; details: one month following treatment
Method: Alcohol consumption in the enrolled subjects was also evaluated. At baseline, 11 of the 30 enrolled subjects reported drinking at least four days per week and 12 of the 30 enrolled subjects reported drinking at least four days per week over the last month. Some of the subjects reported drinking daily. One month following treatment, none (zero) of the enrolled subjects reported drinking more than three times per week. 28 of the 30 enrolled subjects reported drinking less than twice per week over the past month.
Intoxication by alcohol was also evaluated in the enrolled subjects. At baseline, 9 of the 30 enrolled subjects reported being intoxicated more than once over the last 30 days, with some subjects reporting being intoxicated for 25 of the last 30 days. One month following treatment, one participant reported four episodes of intoxication after reporting 23 episodes at baseline.

[2] = test system: special operations veterans with combat and/or blast exposure; details: in vivo
[3] = test system: male veterans with a history of TBI; assay: Pseudo-continuous arterial spin labeling (pcASL) MRI of cerebral blood flow; type: in vivo, human; details: baseline, first post-treatment scan and one month post-treatment; paired t-test; 18 subjects
Method: Arterial spin labeling (ASL) MR was used to measure cerebral blood flow in some of the subjects of the subjects enrolled in the study of Example 1. As described in Example 3, pseudo-continuous ASL (pcASL) was performed on the subject at baseline, about 1 week after treatment, and one-month after treatment. […] A first metric of interest was change in net quantity (mL/100 g tissue/min) of blood entering different regions of the brain. Images of the left posterior orbital gyrus, left anterior insula, left and right cerebral white matter at baseline and 1-week post treatment (images not shown) were analyzed and compared. […] A paired t-test across 3 time points—baseline (pre-treatment), 1 week post-treatment, and 1 month post-treatment—was employed.
Arterial spin labeling (ASL) MRW was used to measure cerebral blood flow.
A first metric of interest was change in net quantity (mL/100 g tissue/min) of blood entering different regions of the brain. Images of the left posterior orbital gyrus, left anterior insula, left and right cerebral white matter at baseline and 1-2 days post treatment (images not shown) were analyzed and compared.
A paired t-test across 3 time points-baseline (pre-treatment), 1-2 days post-treatment, and one month post-treatment-was employed.

CCC1CC2CC3c4[nH]c5ccc(OC)cc5c4CCN(C2)C13 (stereo not shown) [ibogaine, Ibogaine]
episodes of intoxication reported by one participant ([1]; 23 episodes at baseline): four
enrolled subjects reporting drinking more than three times per week ([1]; 30 subjects, at baseline 11 of 30 drank at least four days per week): zero
enrolled subjects reporting drinking less than twice per week over the past month ([1]; of the 30 enrolled subjects): 28
Cognitive Flexibility Composite (average of D-KEFS TMT Condition 4, Color/Word Interference Condition 4, Verbal Fluency Category Switching) score [2]: 56.6 ± 5.7 T score and 59.3 ± 5.0 T score
Cognitive Flexibility Composite, effect size D [2]: 0.74 and 0.43
Cognitive Inhibition (D-KEFS Color/Word Interference, Condition 3) score [2]: 59.9 ± 6.4 T score and 59.9 ± 7.5 T score
Cognitive Inhibition (D-KEFS Color/Word Interference, Condition 3), effect size D [2]: 1.22 and 0.62
Detection (CPT-3 Detection) score [2]: 41.2 ± 8.2 T score and 39.5 ± 7.5 T score
Detection (CPT-3 Detection), effect size D [2]: 0.86 and 1.05
Phonemic Fluency (D-KEFS Verbal Fluency) score [2]: 60.8 ± 10.3 T score and 64.0 ± 10.1 T score
Problem Solving (D-KEFS TT, Total Achievement Score) score [2]: 59.1 ± 7.1 T score and 59.5 ± 7.9 T score
Problem Solving (D-KEFS TT, Total Achievement Score), effect size D [2]: 0.44 and 0.49
Reaction Time (CPT-3 Reaction Time) score [2]: 44.1 ± 6.8 T score and 46.4 ± 8.1 T score
Reaction Time (CPT-3 Reaction Time), effect size D [2]: 0.52 and 0.29
Semantic Fluency (D-KEFS Verbal Fluency) score [2]: 60.2 ± 12.2 T score and 63.6 ± 7.8 T score
Sustained Attention (CPT-3 Hit Reaction Time Block Change) score [2]: 50.8 ± 7.9 T score and 51.2 ± 7.7 T score
Verbal Memory (HVLT-R) score [2]: 49.0 ± 9.2 T score and 53.1 ± 8.8 T score
Visuospatial Memory (BVMT-R) score [2]: 58.8 ± 7.1 T score and 58.3 ± 6.6 T score
Visuospatial Memory (BVMT-R), effect size D [2]: 0.32 and 0.50
adverse effect on processing speed, individual D-KEFS results [2]: no indication of an adverse effect
declines across any neuropsychological performance domain [2]: No declines
executive functioning (inhibition, cognitive flexibility, problem-solving, phonemic fluency, working memory), effect sizes D [2]: 0.31-1.22
performance changes in language (semantic fluency) [2]: No significant performance changes
processing speed, effect sizes D [2]: 0.97-1.34
slowing of reaction time, effect sizes D [2]: 0.29-0.52
sustained attention accuracy (detection), effect sizes D [2]: 0.86-1.05
Processing Speed (PSI, WAIS-IV) score ([2]; iv): 59.2 ± 9.7 T score and 61.6 ± 10.7 T score
Processing Speed (PSI, WAIS-IV), effect size D ([2]; iv): 0.97 and 1.34
Working Memory (WMI, WAIS-IV) score ([2]; iv): 57.0 ± 9.5 T score and 57.6 ± 9.2 T score
Working Memory (WMI, WAIS-IV), effect size D ([2]; iv): 0.37 and 0.31
changes in absolute cerebral blood flow [3]: No significant changes
